Measured values reported in patent publication US10041937B2, “Macrophage identification agent, and identification method, sorting method, evaluation method, screening method and kit using the macrophage identifier agent” (CANON KABUSHIKI KAISHA, priority 2013, dated 2018).

Test system: M1 macrophages and M2 macrophages differentiated from mouse bone marrow cells
Assay: Subtype identification by staining and flow cytometry of M1 and M2 macrophages differentiated from mouse bone marrow cells
Format: cell-based, Balb/c mouse
Conditions: for subtype more strongly stained: two compounds used in combination, each 1 μM
How it was run: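 Balb/c mouse bone marrow cells were differentiated to macrophages with 50 ng/mL M-CSF over two 3–4-day periods, then polarized for 3 days to M1 (interferon-γ plus polyliposaccharide) or M2 (IL-4). Live cells (aqua dye-negative) were analysed by flow cytometry; resolution R = |FM1−FM2|/(WM1+WM2) from histogram peak positions and widths indexed subtype discrimination.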

[1] = M1 vs M2 macrophages from mouse bone marrow cells, general formula (11) dyes (Table 9)
[2] = class based on resolution R, general formula (11) dyes (Table 9)
[3] = mouse bone marrow-derived M1 macrophages, channel listed per compound, general formula (11) dyes (Table 9)
[4] = mouse bone marrow-derived M2 macrophages, channel listed per compound, general formula (11) dyes (Table 9)
[5] = R=|FM1−FM2|/(WM1+WM2), compound 1 μM
[6] = fluorescence intensity at peak top of histogram, compound 1 μM, 37° C., 30 minutes

## COC(=O)COc1ccc(/C=C/C2=[N+]3C(=Cc4ccc(-c5cccs5)n4[B-]3(F)F)C=C2)cc1 [compound (161)]
[1]
  Resolution ratio R: 0.582
[2]
  Evaluation of macrophage subtype identification: A (The compound is very good in the subtype identification (namely, the resolution R is 0.5 or more))
[3]
  Peak position of M1 macrophage: 38.4
[4]
  Peak position of M2 macrophage: 9.02
  subtype more strongly stained: the M1 macrophages show higher fluorescence intensity in the APC channel than the M2 macrophages

## O=C(O)CN1C(=O)/C(=C\C=C\c2ccc3c(c2)C2CCCC2N3c2ccccc2)SC1=S (stereo not drawn) [(85)]
[5]
  Resolution ratio R: 0.179
[6]
  Peak position of M1 macrophage: 225
  Peak position of M2 macrophage: 285
Rated from resolution R
  Evaluation of macrophage subtype identification: B (the compound is good in the subtype identification (namely, the resolution R is 0.15 or more and less than 0.5))

## CC1=CC(C)=[N+]2C1=C(c1ccccc1)c1c(C)cc(C)n1[B-]2(F)F [(148)]
[1]
  Resolution ratio R: 0.193
[2]
  Evaluation of macrophage subtype identification: B (the compound is good in the subtype identification (namely, the resolution R is 0.15 or more and less than 0.5))
[3]
  Peak position of M1 macrophage: 109
[4]
  Peak position of M2 macrophage: 151

## CCOC(=O)CN1C(=O)/C(=C\c2ccc3c(c2)C2CCCC2N3c2ccc(C=C(c3ccccc3)c3ccccc3)cc2)SC1=S (stereo not drawn) [(19)]
[5]
  Resolution ratio R: 0.319
[6]
  Peak position of M1 macrophage: 0.90
  Peak position of M2 macrophage: 0.64
Rated from resolution R
  Evaluation of macrophage subtype identification: B (the compound is good in the subtype identification (namely, the resolution R is 0.15 or more and less than 0.5))

## CCOC(=O)Cn1c(=O)/c(=C\c2ccc3c(c2)C2CCCC2N3Cc2ccccc2)s/c1=C1/SC(=O)N(CC)C1=O (stereo not drawn) [(42)]
[5]
  Resolution ratio R: 0.616
[6]
  Peak position of M1 macrophage: 4.19
  Peak position of M2 macrophage: 1.79
Rated from resolution R
  Evaluation of macrophage subtype identification: A (The compound is very good in the subtype identification (namely, the resolution R is 0.5 or more))

## O=C(O)CN1C(=O)/C(=C\c2ccc3c(c2)C2CCCC2N3c2ccccc2)SC1=S (stereo not drawn) [(24)]
[5]
  Resolution ratio R: 0.347
[6]
  Peak position of M1 macrophage: 18.1
  Peak position of M2 macrophage: 27.6
Rated from resolution R
  Evaluation of macrophage subtype identification: B (the compound is good in the subtype identification (namely, the resolution R is 0.15 or more and less than 0.5))

## CCN(CC)c1ccc2cc(-c3nc4ncccc4o3)c(=O)oc2c1 [compound (116)]
M1 vs M2 macrophages from mouse bone marrow cells, general formula (10) dyes (Table 8)
  Resolution ratio R: 0.772
Class based on resolution R, general formula (10) dyes (Table 8)
  Evaluation of macrophage subtype identification: A (The compound is very good in the subtype identification (namely, the resolution R is 0.5 or more))
Mouse bone marrow-derived M1 macrophages, channel listed per compound, general formula (10) dyes (Table 8)
  Peak position of M1 macrophage: 4.91
Mouse bone marrow-derived M2 macrophages, channel listed per compound, general formula (10) dyes (Table 8)
  Peak position of M2 macrophage: 12.1
  subtype more strongly stained: more strongly stain the M2 macrophages than the M1 macrophages
